Data on three molecules can be found in patent US9561168B2, “Oral care compositions” (Colgate-Palmolive Company, priority 2011, dated 2017).

For test [1], the system named is Actinomyces viscosus. The test can be described thus: Minimum inhibitory concentration (MIC) against Actinomyces viscosus. It is filed as cell-based. As for the experimental part: (§1) Mixed species bacteria are grown as follows: Actinomyces viscosus (ATCC #31346) is grown in trypticase soy broth supplemented with 0.6% yeast extract (TSB-YE) at 37° C., static culture. For mixed species assays, the source of bacteria is a continuous culture chemostat inoculated with A. viscosus, Lactobacillus casei (ATCC #334), Streptococcus oralis (ATCC #35037), Fusobacterium nucleatum (ATCC #10953), and Veilonella parvula (ATCC #17745). This mixed culture is maintained in a specialized complex medium in a continuous culture chemostat at 37° C.
Gallium nitrate is assessed in oral biofilm models. […] The advantage of gallium over other agents is that it appears to target the relatively starved bacteria found deeper in the biofilms that are usually less accessible to traditional antimicrobial agents.

For test [2], the system named is single species Actinomyces viscosus biofilms. The test can be described thus: Inhibition of single species Actinomyces viscosus biofilm formation. It is filed as cell-based. To be noted: single species A. viscosus biofilm. As for the experimental part: as §1
For test [3] the following is noted: antimicrobial agents currently in use in oral formulations; organism not stated; cited from earlier work.
Test [4] has as its system other oral bacterial species tested. Put plainly: Antimicrobial activity against other oral bacterial species. The note with it: any other oral bacterial species tested (other than A. viscosus). Format: cell-based.
Test [5] has as its system five species biofilm (A. viscosus, Lactobacillus casei, Streptococcus oralis, Fusobacterium nucleatum, Veilonella parvula). The test can be described thus: Mixed (five) species biofilm test on saliva-coated HAP disks. Format: cell-based. The note with it: 250 ppm of ε-polylysine.
Procedure: Mixed species biofilms are preformed on saliva-coated HAP disks (scHAP). Following saliva coating, disks are inoculated with 1 ml of mixed species culture from the continuous culture chemostat described above diluted to an OD610 of ˜0.2 in 0.5×TSB. Plates are incubated for 48 h at 37° C. to allow biofilms to form.
Disks containing preformed biofilms are transferred to a fresh 24-well culture plate and 1 ml of sterile 0.5×TSB medium containing the indicted concentration of test compound is added to each disk. Plates are incubated for 1 h at 37° C. with gentle agitation. […] Plates are sonicated for 2 min to pellet any residual HAP and supernatants are removed to fresh plates so that absorbance could be read at 610 nm.
All samples are tested in triplicate and the average of the three wells determined.

Take `O=[N+]([O-])[O-].O=[N+]([O-])[O-].O=[N+]([O-])[O-].[Ga+3]` [gallium nitrate]: the “minimum inhibitory concentration (MIC)” value in test [1] was “approximately 60 ppm”. In test [2], the “concentration able to inhibit formation of single species biofilms” value was determined as 30 ppm.
`Oc1cc(Cl)ccc1Oc1ccc(Cl)cc1Cl` [triclosan]: in test [3], the MTC values entry is reported as “less than 10 ppm”.
On to ε-Polylysine, for which the “minimum inhibitory concentration (MIC)” value in test [1] is given as under 1 ppm. The “antimicrobial activity against other oral bacterial species” value in test [4] is reported as “does not have antimicrobial activity”. Moreover, in test [5], the “inhibition of multispecies biofilm formation” value is reported as “less than 20%”. Also, in test [2], the “concentration able to inhibit formation of single species biofilms” value is given as under 1 ppm.
